Measured values reported in ChEMBL document CHEMBL2163318, “Phenylalanine derivatives as GPR142 agonists for the treatment of type II diabetes” (Bioorg Med Chem Lett, 2012).
Calls of active or inactive are those of the source. No cut-off for these calls is given here.

Tests used:
[1] = test system: Mus musculus; assay: Antidiabetic activity in B6D2F1 Harlan mouse assessed as increase in serum insulin level at 0.10 mg/kg, sc administered 15 mins prior glucose challenge measured 7.5 mins post glucose challenge by ELISA; type: functional, organism-based; set-up: dose 0.1 mg/kg
[2] = test system: Mus musculus; assay: Antidiabetic activity in B6D2F1 Harlan mouse assessed as increase in serum insulin level at 0.30 mg/kg, sc administered 15 mins prior glucose challenge measured 7.5 mins post glucose challenge by ELISA; type: functional; details: dose 0.3 mg/kg; route subcutaneous
[3] = test system: Mus musculus; assay: Antidiabetic activity in B6D2F1 Harlan mouse assessed as increase in serum insulin level at 1 mg/kg, sc administered 15 mins prior glucose challenge measured 7.5 mins post glucose challenge by ELISA; type: functional; details: route subcutaneous
[4] = test system: Mus musculus; assay: Antidiabetic activity in B6D2F1 Harlan mouse assessed as increase in serum insulin level at 3 mg/kg, sc administered 15 mins prior glucose challenge measured 7.5 mins post glucose challenge by ELISA; type: functional; details: route subcutaneous
[5] = test system: Mus musculus; assay: Antidiabetic activity in B6D2F1 Harlan mouse assessed as increase in serum insulin level at 5 mg/kg, sc administered 15 mins prior glucose challenge measured 7.5 mins post glucose challenge by ELISA; type: functional; details: route subcutaneous
[6] = test system: Mus musculus; assay: Antidiabetic activity in B6D2F1 Harlan mouse assessed as increase in serum insulin level at 30 mg/kg, sc administered 15 mins prior glucose challenge measured 7.5 mins post glucose challenge by ELISA; type: functional; details: route subcutaneous
[7] = Clearance in rat at 0.89 mg/kg, iv; type: ADME, organism-based; set-up: dose 0.89 mg/kg, route intravenous; details: in vivo
[8] = AUC in rat at 0.89 mg/kg, iv; type: ADME, organism-based; set-up: dose 0.89 mg/kg, route intravenous; details: plasma
[9] = Volume of distribution at steady state in rat at 0.89 mg/kg, iv; type: ADME, organism-based; set-up: dose 0.89 mg/kg, route intravenous; details: in vivo, read-out: Vdss
[10] = Half life in rat at 0.89 mg/kg, iv; type: ADME, organism-based; set-up: dose 0.89 mg/kg, route intravenous; details: in vivo
[11] = AUC in rat at 2 mg/kg, po; type: ADME, organism-based; set-up: dose 2 mg/kg, route oral; details: plasma
[12] = Mean residence time in rat at 2 mg/kg, po; type: ADME, organism-based; set-up: dose 2 mg/kg, route oral; details: in vivo
[13] = Oral bioavailability in rat at 2 mg/kg; type: ADME, organism-based; details: in vivo
[14] = target: T1, Probable G-protein coupled receptor 142 (Mus musculus) (UniProt Q7TQN9); assay: Agonist activity at mouse GPR142 expressed in HEK293 cells by inositol phosphate accumulation assay relative to control; type: functional, cell-based
T1 sequence (whole entry): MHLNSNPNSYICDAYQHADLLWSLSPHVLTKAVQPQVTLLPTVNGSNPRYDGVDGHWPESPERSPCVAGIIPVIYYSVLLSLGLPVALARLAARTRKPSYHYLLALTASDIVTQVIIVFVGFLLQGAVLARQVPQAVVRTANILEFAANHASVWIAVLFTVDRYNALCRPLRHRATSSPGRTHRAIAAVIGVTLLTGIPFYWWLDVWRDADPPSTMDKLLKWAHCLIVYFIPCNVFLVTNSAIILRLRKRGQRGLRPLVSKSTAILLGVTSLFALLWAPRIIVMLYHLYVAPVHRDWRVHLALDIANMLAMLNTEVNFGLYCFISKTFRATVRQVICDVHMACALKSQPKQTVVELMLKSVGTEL

[15] = Metabolic stability of rat microsomes assessed as compound turnover at 1 uM after 30 mins by LC-MS analysis; type: ADME, Microsome; details: read-out: Drug metabolism
[16] = Metabolic stability of human microsomes assessed as compound turnover at 1 uM after 30 mins by LC-MS analysis; type: ADME, Microsome; details: read-out: Drug metabolism
[17] = target: T2, Probable G-protein coupled receptor 142 (Homo sapiens) (UniProt Q7Z601); assay: Agonist activity at human GPR142 expressed in HEK293 cells assessed as inositol phosphate accumulation at 10 uM after 1 hr by scintillation counting; type: functional, cell-based
T2 sequence (whole entry): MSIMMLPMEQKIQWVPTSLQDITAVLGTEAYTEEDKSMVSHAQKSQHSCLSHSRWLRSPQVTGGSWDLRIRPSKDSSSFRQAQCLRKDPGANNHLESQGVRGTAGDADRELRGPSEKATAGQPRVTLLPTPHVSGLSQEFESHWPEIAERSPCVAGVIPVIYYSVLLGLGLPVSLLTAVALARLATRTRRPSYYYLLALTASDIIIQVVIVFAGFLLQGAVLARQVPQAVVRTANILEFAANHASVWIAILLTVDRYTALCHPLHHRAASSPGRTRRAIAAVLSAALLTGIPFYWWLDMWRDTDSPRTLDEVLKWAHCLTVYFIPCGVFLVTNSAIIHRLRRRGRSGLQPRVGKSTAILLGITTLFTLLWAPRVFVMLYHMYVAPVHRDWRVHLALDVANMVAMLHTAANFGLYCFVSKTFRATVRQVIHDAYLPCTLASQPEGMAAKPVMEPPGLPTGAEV

[18] = target: T3, Probable G-protein coupled receptor 142 (Homo sapiens, UniProt Q7Z601); assay: Agonist activity at human GPR142 expressed in HEK293 cells assessed as inositol phosphate accumulation after 1 hr by scintillation counting; type: functional, cell-based
T3 sequence (Q7Z601 whole entry): T2 sequence (whole entry)

[19] = target: T4, Probable G-protein coupled receptor 142 (Mus musculus, UniProt Q7TQN9); assay: Agonist activity at mouse GPR142 expressed in HEK293 cells by inositol phosphate accumulation assay; type: functional, cell-based
T4 sequence (Q7TQN9 whole entry): T1 sequence (whole entry)

[20] = test system: Mus musculus; assay: Antidiabetic activity in sc dosed B6D2F1 Harlan mouse assessed as decrease in blood glucose level administered 15 mins prior glucose challenge measured 7.5 mins post glucose challenge by glucometer analysis; type: functional, organism-based
[21] = test system: Mus musculus; assay: Antidiabetic activity in sc dosed B6D2F1 Harlan mouse assessed as increase in serum insulin level administered 15 mins prior glucose challenge measured 7.5 mins post glucose challenge by ELISA; type: functional, organism-based
[22] = test system: Mus musculus; assay: Antidiabetic activity in B6D2F1 Harlan mouse assessed as decrease in blood glucose level at 0.10 mg/kg, sc administered 15 mins prior glucose challenge measured 7.5 mins post glucose challenge by glucometer analysis; type: functional, organism-based; set-up: dose 0.1 mg/kg
[23] = test system: Mus musculus; assay: Antidiabetic activity in B6D2F1 Harlan mouse assessed as decrease in blood glucose level at 0.30 mg/kg, sc administered 15 mins prior glucose challenge measured 7.5 mins post glucose challenge by glucometer analysis; type: functional; set-up: scale not given: the % may be the effect or the level left; details: dose 0.3 mg/kg; route subcutaneous
[24] = test system: Mus musculus; assay: Antidiabetic activity in B6D2F1 Harlan mouse assessed as decrease in blood glucose level at 1 mg/kg, sc administered 15 mins prior glucose challenge measured 7.5 mins post glucose challenge by glucometer analysis; type: functional; set-up: scale not given: the % may be the effect or the level left; details: route subcutaneous
[25] = test system: Mus musculus; assay: Antidiabetic activity in B6D2F1 Harlan mouse assessed as decrease in blood glucose level at 3 mg/kg, sc administered 15 mins prior glucose challenge measured 7.5 mins post glucose challenge by glucometer analysis; type: functional; set-up: scale not given: the % may be the effect or the level left; details: route subcutaneous
[26] = test system: Mus musculus; assay: Antidiabetic activity in B6D2F1 Harlan mouse assessed as decrease in blood glucose level at 5 mg/kg, sc administered 15 mins prior glucose challenge measured 7.5 mins post glucose challenge by glucometer analysis; type: functional; set-up: scale not given: the % may be the effect or the level left; details: route subcutaneous
[27] = test system: Mus musculus; assay: Antidiabetic activity in B6D2F1 Harlan mouse assessed as decrease in blood glucose level at 30 mg/kg, sc administered 15 mins prior glucose challenge measured 7.5 mins post glucose challenge by glucometer analysis; type: functional; set-up: scale not given: the % may be the effect or the level left; details: route subcutaneous

O=C(Nc1cc(-c2ccncc2)c[nH]c1=O)[C@H](Cc1ccccc1)NC1(c2ccccn2)CC1
Activity [1]: inactive | Activity [2]: 15% | Activity [3]: 41% | Activity [4]: 58% | Activity [5]: 81% | Activity [6]: 98% | clearance [7]: 83.3 mL/min/kg | AUC [8]: 177 ng·h/mL | Vd [9]: 1.1 L/kg | half-life [10]: 12 min | AUC [11]: 77 ng·h/mL | MRT [12]: 1.79 h | bioavailability [13]: 20% | Emax [14]: 81% | metabolised at 0.5 h, 1 µM [15]: 60% | metabolised at 0.5 h, 1 µM [16]: < 10% | Emax [17]: 127% | EC50 [18]: 54 nM | EC50 [19]: 1.8 nM | Activity [20]: Dose-dependent effect | EC50 [20]: 850 nM | Activity [21]: Dose-dependent effect | EC50 [21]: 290 nM | Activity [22]: inactive | Activity [23]: 0% | Activity [24]: 3% | Activity [25]: 4% | Activity [26]: 15% | Activity [27]: 13%
